Assay results taken from patent US10011573B2, “Human androgen receptor DNA-binding domain (DBD) compounds as therapeutics and methods for their use” (The University of British Columbia, priority 2014, dated 2018).
Read-outs that look alike come from different tables or passages of the source.

Target: T1, androgen receptor (AR) (Homo sapiens, UniProt P10275, T878A)
T1 sequence (P10275 1-920 T878A): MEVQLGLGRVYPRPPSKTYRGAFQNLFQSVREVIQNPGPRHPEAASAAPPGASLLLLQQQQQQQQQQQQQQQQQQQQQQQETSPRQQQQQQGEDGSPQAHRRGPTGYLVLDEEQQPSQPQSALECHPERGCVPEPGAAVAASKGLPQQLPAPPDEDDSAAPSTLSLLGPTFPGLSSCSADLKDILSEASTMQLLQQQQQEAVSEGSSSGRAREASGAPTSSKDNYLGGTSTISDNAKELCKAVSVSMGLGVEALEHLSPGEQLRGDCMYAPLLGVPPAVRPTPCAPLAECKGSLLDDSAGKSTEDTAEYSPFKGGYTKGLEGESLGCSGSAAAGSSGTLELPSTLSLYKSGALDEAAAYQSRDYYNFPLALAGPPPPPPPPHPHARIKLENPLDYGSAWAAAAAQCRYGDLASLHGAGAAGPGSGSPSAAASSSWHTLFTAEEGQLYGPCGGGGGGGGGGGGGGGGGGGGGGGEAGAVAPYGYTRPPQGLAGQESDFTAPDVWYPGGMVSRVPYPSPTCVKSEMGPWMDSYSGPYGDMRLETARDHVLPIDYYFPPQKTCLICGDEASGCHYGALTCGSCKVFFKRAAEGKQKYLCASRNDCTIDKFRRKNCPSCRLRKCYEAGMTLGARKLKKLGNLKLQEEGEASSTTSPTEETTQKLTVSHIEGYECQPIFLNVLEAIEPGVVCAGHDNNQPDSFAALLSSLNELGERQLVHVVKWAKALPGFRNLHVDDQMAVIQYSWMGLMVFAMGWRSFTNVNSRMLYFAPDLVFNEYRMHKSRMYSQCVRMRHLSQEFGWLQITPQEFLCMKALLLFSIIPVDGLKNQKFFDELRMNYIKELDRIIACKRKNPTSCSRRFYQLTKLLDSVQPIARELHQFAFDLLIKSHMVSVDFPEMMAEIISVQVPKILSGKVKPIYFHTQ
Test: eGFP cellular AR transcription assay (LNCaP eGFP cells, LN-ARR2PB-eGFP)
Conditions: for inhibition at 3 µM: LNCaP, read-out: % Inhibition (3 μM); for anti-AR activity (AR transcriptional inhibition) in words: LNCaP (T877A AR); for eGFP IC50: 0.1 nM R1881

[1] = eGFP IC50 (μM), LNCaP eGFP cells

Row | SMILES | inhibition at 3 µM [%] | % Inhibition (3 μM) [%] | further results
1 | COc1cc(C)c2occ(/C(C)=N/O)c2c1 [Compound 14017] |  |  | IC50 [1]: 41.6 µM
2 | c1ccc2cc(-n3ccnc3)ccc2c1 [Compound 14018] |  |  | IC50 [1]: 13.9 µM
3 | c1cc2c3c(ccc(-c4ccn[nH]4)c3c1)CC2 [Compound 14053] |  |  | IC50 [1]: 4 µM
4 | CCSc1ccc(-c2cc(C)nc(N)n2)cc1 [Compound 14055] |  |  | IC50 [1]: 10 µM
5 | Cc1ccccc1CN1C(=O)NC2C=CC=CC21 (centres unmarked) [Compound 14065] |  |  | IC50 [1]: 10 µM
6 | Nc1ccccc1CN1C(=O)Cc2ccccc21 [Compound 14082] | 93.1 |  | IC50 [1]: 9.5 µM
7 | Oc1ccccc1/C=C/c1ccccn1 [Compound 14088] |  |  | IC50 [1]: 3.54 µM
8 | c1ccc2oc(-c3csc(N4CCOCC4)n3)cc2c1 [Compound 14136] |  | 40.98 | 
9 | c1ccc2sc(-c3csc(N4CCOCC4)n3)nc2c1 [Compound 14137] |  | 37.44 | 
10 | NC(=S)N/N=C1\C(=O)c2cccc3cccc1c23 [Compound 14151] |  |  | IC50 [1]: 30 µM
11 | CNC(=S)N/N=C1\C(=O)c2cccc3cccc1c23 [Compound 14153] |  |  | IC50 [1]: 6 µM
12 | c1ccc2c(-n3ccnc3)cccc2c1 [Compound 14163] |  |  | IC50 [1]: 24 µM
13 | NC(=S)N/N=C1\CCCc2ccccc21 [Compound 14175] | 45.5 |  | IC50 [1]: 13.6 µM
14 | c1ccc2cc(-c3csc(N4CCOCC4)n3)ccc2c1 [Compound 14231] |  | 38.78 | 
15 | CC1CN(c2nc(-c3ccc([N+](=O)[O-])cc3)cs2)C(C)CO1 (centres unmarked) [Compound 14247] |  | 3.73 | 
16 | CC1CN(c2nc(-c3ccc(Cl)cc3)cs2)C(C)CO1 (centres unmarked) [Compound 14248] |  | 4.73 | 
17 | COc1ccc(-c2csc(N3CCOCC3)n2)cc1 [Compound 14249] |  | 45.16 | 
18 | Brc1ccc(-c2csc(N3CCOCC3)n2)cc1 [Compound 14251] |  | 7.96 | 
19 | COc1ccc(-c2csc(N3CCOCC3)n2)cc1OC [Compound 14252] |  | 26.03 | 

Row | SMILES | inhibition at 3 µM [%] | % Inhibition (3 μM) [%] | further results
20 | Clc1ccc(-c2csc(N3CCOCC3)n2)cc1 [Compound 14253] | 38.2 |  | IC50 (eGFP IC50 (μM), Series 1): 39.9 µM
21 | Nc1ccc(-c2csc(N3CCOCC3)n2)cc1 [Compound 14256] |  | 28.14 | 
22 | CCc1ccc(-c2csc(N3CCOCC3)n2)cc1 [Compound 14259] |  | 26.26 | 
23 | N#Cc1ccc(-c2csc(N3CCOCC3)n2)cc1 [Compound 14261] |  |  | % Inhibition (3 μM) (3 µM): 25.48%
24 | Oc1ccc(-c2csc(N3CCOCC3)n2)cc1O [Compound 14267] |  | 19.95 | 
25 | COc1ccc(-c2csc(N3CCOCC3)n2)c(OC)c1 [Compound 14268] |  | 37.55 | 
26 | OCc1sc(N2CCOCC2)nc1-c1ccccc1 [Compound 14274] |  | 5.04 | 
27 | CS(=O)(=O)Nc1ccc(-c2csc(N3CCOCC3)n2)cc1 [Compound 14276] |  | 25.98 | 
28 | CS(=O)(=O)c1ccc(-c2csc(N3CCOCC3)n2)cc1 [Compound 14277] |  | 12.71 | 
29 | c1cc2c(cc1-c1csc(N3CCOCC3)n1)COC2 [Compound 14282] |  | 29.04 | 
30 | Cc1ccc(-c2csc(N3CCOCC3)n2)c(C)c1 [Compound 14283] |  | 38.89 | 
31 | Cc1ccc(-c2nc(N3CCOCC3)sc2C)cc1 [Compound 14284] |  | 30.22 | 
32 | Fc1ccccc1-c1csc(N2CCOCC2)n1 [Compound 14286] |  | 85.86 | 
33 | Oc1ccc(-c2csc(N3CCOCC3)n2)c(O)c1 [Compound 14295] |  | 24.7 | 
34 | CSc1ccc(-c2csc(N3CCOCC3)n2)cc1 [Compound 14297] |  | 109.99 | 
35 | Nc1cccc(-c2ccc3ccccc3n2)c1 [Compound 14321] | 66.5 |  | 
36 | Oc1ccccc1-c1ccc2cccnc2n1 [Compound 14336] | 27.1 |  | 
37 | CN1CCN(c2nc(-c3ccccc3)cs2)CC1 [Compound 14338] |  | 19.33 | 
38 | NC(=O)N1CCN(c2nc(-c3ccccc3)cs2)CC1 [Compound 14339] |  | 15.82 | 

Row | SMILES | inhibition at 3 µM [%] | % Inhibition (3 μM) [%] | further results
39 | Fc1ccc(-c2csc(N3CCNCC3)n2)cc1 [Compound 14340] |  | 16.12 | 
40 | Cc1sc(N2CCOCC2)nc1-c1ccc(F)cc1 [Compound 14341] |  | 43.7 | 
41 | COc1cccc(-c2csc(-c3ccccn3)n2)c1 [Compound 14343] |  | 16.12 | 
42 | Cc1sc(N2CCOCC2)nc1-c1ccccc1 [Compound 14349] |  |  | IC50 (eGFP IC50 (μM), Series 1): 1.47 µM
43 | c1ccc(-c2csc(N3CCCC3)n2)cc1 [Compound 14351] |  | 38.4 | 
44 | COc1ccccc1-c1nc(N2CCOCC2)sc1C [Compound 14363] |  | 29.03 | 
45 | c1ccc(-c2csc(N3CCSCC3)n2)cc1 [Compound 14385] |  |  | IC50 (eGFP IC50 (μM), Series 1): 0.6 µM
46 | Fc1ccc(-c2csc(N3CCSCC3)n2)cc1 [Compound 14386] |  |  | IC50 (eGFP IC50 (μM), Series 1): 1.6 µM
47 | OCc1cccc(-c2ccc3ccccc3n2)c1 [Compound 14388] | 44.9 |  | IC50 [1]: 10.4 µM
48 | NC(=O)c1ccc(-c2ccc3ccccc3n2)cc1 [Compound 14389] | 14.5 |  | 
49 | c1ccc2sc(N3CCOCC3)nc2c1 [Compound 14393] | 31.2 |  | IC50 [1]: 46.6 µM
50 | c1sc(N2CCOCC2)nc1C1CCCC1 [Compound 14403] | 22 |  | anti-AR activity (AR transcriptional inhibition) in words: lost their anti-AR activity; eGFP IC50 (LNCaP eGFP cells): Low activity
51 | c1sc(N2CCOCC2)nc1C1CCCCC1 [Compound 14406] | 33 |  | anti-AR activity (AR transcriptional inhibition) in words: lost their anti-AR activity; eGFP IC50 (LNCaP eGFP cells): Low activity
52 | Cc1sccc1-c1csc(N2CCOCC2)n1 [Compound 14407] |  | 38.00 | 
53 | Cc1cccn1-c1csc(N2CCOCC2)n1 [Compound 14410] |  |  | IC50 (eGFP IC50 (μM), Series 1): 28.4 µM
54 | c1ccn(-c2csc(N3CCOCC3)n2)c1 [Compound 14411] |  | 44.00 | 
55 | COc1ccc(-c2nc(-c3ccccc3)cs2)cc1 [Compound 14419] |  | 119.36 | IC50 (read-out: eGFP IC50): 6.11 µM
56 | Oc1ccc(-c2csc(-c3ccccc3)n2)cc1 [Compound 14420] | 125 |  | IC50 (eGFP IC50 (μM), Series 1): 3.73 µM
57 | CS(=O)(=O)c1c(F)cccc1-c1csc(N2CCOCC2)n1 [Compound 14429] |  |  | IC50 (eGFP IC50 (μM), Series 1): 3.55 µM

Second part, led by results:

Row | inhibition at 3 µM [%] | SMILES | % Inhibition (3 μM) [%] | further results
58 | 92.5 | NC(=S)N/N=C1\Cc2cccc3cccc1c23 [Compound 14005] |  | IC50 [1]: 2 µM
59 | 65.4 | C[C@@H]1C(=O)N(c2ccccc2)C2C=CC=CC21 (some centres unmarked) [Compound 14078] |  | IC50 [1]: 20 µM
60 | 9 | c1ccc2c(N3CCOCC3)nccc2c1 [Compound 14112] |  | 
61 | 86.8 | NC(=S)N/N=C/c1cccc2ccccc12 [Compound 14164] |  | IC50 [1]: 3.04 µM
62 | 99.6 | C/C(=N/O)c1ccc2c(C)ccc3c2c1CC3 [Compound 14171] |  | IC50 [1]: 3.38 µM
63 | 46.4 | NC(=S)NN=C(c1ccccc1)c1ccccc1 [Compound 14172] |  | IC50 [1]: 29.4 µM
64 | 54.4 | Nc1nc(-c2ccc3c(c2)CCCC3)cs1 [Compound 14198] |  | IC50 [1]: 5.51 µM
65 | 45.8 | NC(=S)NN=C1c2ccccc2-c2ccccc21 [Compound 14205] |  | IC50 [1]: 7.38 µM
66 | 109 | C/C(=N\NC(N)=S)c1ccc2c3c(cccc13)CC2 [Compound 14206] |  | IC50 [1]: 3.4 µM
67 | 99.5 | c1ccc2c(-c3csc(N4CCOCC4)n3)cccc2c1 [Compound 14230] |  | IC50 (eGFP IC50 (μM), Series 1): 1.61 µM
68 | 3.37 | O=[N+]([O-])c1ccc(-c2csc(N3CCOCC3)n2)cc1 [Compound 14254] |  | IC50 (eGFP IC50 (μM), Series 1): 15.8 µM
69 | 18.6 | c1cc2c(cc1-c1csc(N3CCOCC3)n1)CCCC2 [Compound 14291] |  | anti-AR activity (AR transcriptional inhibition) in words: lost their anti-AR activity; eGFP IC50 (LNCaP eGFP cells): Low activity
70 | 40 | Cc1ccc(-c2csc(N3CCOCC3)n2)cc1C [Compound 14294] |  | IC50 (eGFP IC50 (μM), Series 1): 10.3 µM
71 | 60 | CC1CCCN(c2nc(-c3ccc(O)cc3O)cs2)C1 (centres unmarked) [Compound 14301] |  | IC50 (eGFP IC50 (μM), Series 1): 5 µM
72 | 41.6 | c1ccc(-c2csc(-c3c[nH]c4ccccc34)n2)cc1 [Compound 14361] |  | IC50 (eGFP IC50 (μM), Series 1): 10.1 µM
73 | 109 | Nc1ccc2nc(-c3cccc(O)c3)sc2c1 [Compound 14387] |  | IC50 [1]: 14.8 µM
74 | 107 | FC(F)(F)c1cccc(-c2csc(-c3ccncc3)n2)c1 [Compound 14421] |  | IC50 (eGFP IC50 (μM), Series 1): 4.61 µM
75 | 131 | CC(=O)c1ccc(-c2ccccc2)s1 [Compound 14422] |  | IC50 (eGFP IC50 (μM), Series 1): 2.26 µM
